These molecules were tested against T1, human PAH with the R408W mutation (Homo sapiens, UniProt P00439, R408W) (assay: Cell Based Phenylalanine Flux Assay). Conditions: A375 cells expressing human R408W PAH; 24 hrs compound incubation; 13C-Tyrosine by LC-MS; average where tested multiple times; read-out: AC50.
T1 construct: expressed in transfected cells
T1 sequence (P00439 1-452 R408W): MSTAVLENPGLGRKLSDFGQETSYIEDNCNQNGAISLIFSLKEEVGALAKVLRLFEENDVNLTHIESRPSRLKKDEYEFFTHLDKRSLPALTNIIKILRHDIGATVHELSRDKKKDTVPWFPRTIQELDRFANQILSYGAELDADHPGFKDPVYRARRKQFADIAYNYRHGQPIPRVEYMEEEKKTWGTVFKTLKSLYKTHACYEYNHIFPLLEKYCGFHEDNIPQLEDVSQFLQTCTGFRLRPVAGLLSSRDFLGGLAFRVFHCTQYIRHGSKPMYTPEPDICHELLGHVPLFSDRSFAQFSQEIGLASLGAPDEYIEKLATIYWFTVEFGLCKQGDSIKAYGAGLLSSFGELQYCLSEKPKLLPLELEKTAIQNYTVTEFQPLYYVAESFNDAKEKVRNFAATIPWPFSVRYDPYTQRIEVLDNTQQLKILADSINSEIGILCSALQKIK
In the case of O=C(c1cnn2cc(C3CC3)ccc12)N1CCc2[nH]cnc2[C@H]1c1cc2c(F)cccn2n1 [Example 1672, (S)-(6-cyclopropylpyrazolo[1,5-a]pyridin-3-yl)(4-(4-fluoropyrazolo[1,5-a]pyridin-2-yl)-6,7-dihydro-1H-imidazo[4,5-c]pyridin-5(4H)-yl)methanone], the AC50 is reported as < 500 nM. COc1ccc2c(C(=O)N3CCc4[nH]cnc4[C@H]3c3cc4c(C(F)(F)F)cccn4n3)cnn2c1 [Example 1674, (S)-(6-methoxypyrazolo[1,5-a]pyridin-3-yl)(4-(4-(trifluoromethyl)pyrazolo[1,5-a]pyridin-2-yl)-6,7-dihydro-1H-imidazo[4,5-c]pyridin-5(4H)-yl)methanone] gave an AC50 of 500 to 1000 nM. COc1ccc2c(C(=O)N3CCc4[nH]cnc4[C@H]3c3cc4c(C(F)F)cccn4n3)cnn2c1 [Example 1676, (S)-(4-(4-(difluoromethyl)pyrazolo[1,5-a]pyridin-2-yl)-6,7-dihydro-1H-imidazo[4,5-c]pyridin-5(4H)-yl)(6-methoxypyrazolo[1,5-a]pyridin-3-yl)methanone] showed an AC50 of 500 to 1000 nM. COc1ccc2c(C(=O)N3CCc4[nH]cnc4[C@@H]3c3cc4c(C(F)F)cccn4n3)cnn2c1 [Example 1677, (R)-(4-(4-(difluoromethyl)pyrazolo[1,5-a]pyridin-2-yl)-6,7-dihydro-1H-imidazo[4,5-c]pyridin-5(4H)-yl)(6-methoxypyrazolo[1,5-a]pyridin-3-yl)methanone] was tested, and the AC50 was > 5000 nM. With O=C(c1nnc(-c2ncccc2F)o1)N1CCc2[nH]cnc2[C@@H]1c1cc2c(OC(F)(F)F)cccn2n1 [Example 1678, (R)-(5-(3-fluoropyridin-2-yl)-1,3,4-oxadiazol-2-yl)(4-(4-(trifluoromethoxy)pyrazolo[1,5-a]pyridin-2-yl)-6,7-dihydro-1H-imidazo[4,5-c]pyridin-5(4H)-yl)methanone] the AC50 was > 5000 nM. With O=C(c1nnc(-c2ncccc2F)o1)N1CCc2[nH]cnc2[C@H]1c1cc2c(OC(F)(F)F)cccn2n1 [Example 1679, (S)-(5-(3-fluoropyridin-2-yl)-1,3,4-oxadiazol-2-yl)(4-(4-(trifluoromethoxy)pyrazolo[1,5-a]pyridin-2-yl)-6,7-dihydro-1H-imidazo[4,5-c]pyridin-5(4H)-yl)methanone] the AC50 was < 500 nM. O=C(c1nnc(-c2cnccn2)o1)N1CCc2[nH]cnc2[C@H]1c1cc2c(OC(F)(F)F)cccn2n1 [Example 1680, (S)-(5-(pyrazin-2-yl)-1,3,4-oxadiazol-2-yl)(4-(4-(trifluoromethoxy)pyrazolo[1,5-a]pyridin-2-yl)-6,7-dihydro-1H-imidazo[4,5-c]pyridin-5(4H)-yl)methanone] gave an AC50 of 500 to 1000 nM. With Cn1cc(-c2nnc(C(=O)N3CCc4[nH]cnc4[C@H]3c3cc4c(OC(F)(F)F)cccn4n3)o2)cn1 [Example 1682, (S)-(5-(1-methyl-1H-pyrazol-4-yl)-1,3,4-oxadiazol-2-yl)(4-(4-(trifluoromethoxy)pyrazolo[1,5-a]pyridin-2-yl)-6,7-dihydro-1H-imidazo[4,5-c]pyridin-5(4H)-yl)methanone] the AC50 was < 500 nM. CC(C)(C)c1nnc(C(=O)N2CCc3[nH]cnc3[C@H]2c2cc3c(OC(F)F)cccn3n2)o1 [Example 1687, (S)-(5-(tert-butyl)-1,3,4-oxadiazol-2-yl)(4-(4-(difluoromethoxy)pyrazolo[1,5-a]pyridin-2-yl)-6,7-dihydro-1H-imidazo[4,5-c]pyridin-5(4H)-yl)methanone] was tested, and the AC50 was 500 to 1000 nM. In the case of O=C(c1nnc(-c2ccccn2)o1)N1CCc2[nH]cnc2[C@H]1c1cc2c(OC(F)F)cccn2n1 [Example 1689, (S)-(4-(4-(difluoromethoxy)pyrazolo[1,5-a]pyridin-2-yl)-6,7-dihydro-1H-imidazo[4,5-c]pyridin-5(4H)-yl)(5-(pyridin-2-yl)-1,3,4-oxadiazol-2-yl)methanone], the AC50 is reported as < 500 nM. For Cc1cccc2cc([C@@H]3c4nc[nH]c4CCN3C(=O)c3cnn4cc(CN(C)C)ccc34)nn12 [Example 1690, (S)-(6-((dimethylamino)methyl)pyrazolo[1,5-a]pyridin-3-yl)(4-(7-methylpyrazolo[1,5-a]pyridin-2-yl)-6,7-dihydro-1H-imidazo[4,5-c]pyridin-5(4H)-yl)methanone], the AC50 was 500 to 1000 nM. In the case of Cc1cccc2cc([C@H]3c4nc[nH]c4CCN3C(=O)c3cnn4cc(CN(C)C)ccc34)nn12 [Example 1691, (R)-(6-((dimethylamino)methyl)pyrazolo[1,5-a]pyridin-3-yl)(4-(7-methylpyrazolo[1,5-a]pyridin-2-yl)-6,7-dihydro-1H-imidazo[4,5-c]pyridin-5(4H)-yl)methanone], the AC50 is reported as > 5000 nM. For FC(F)(F)c1cccn2nc([C@@H]3c4nc[nH]c4CCN3c3ncccn3)cc12 [Example 1692, (S)-5-(pyrimidin-2-yl)-4-(4-(trifluoromethyl)pyrazolo[1,5-a]pyridin-2-yl)-4,5,6,7-tetrahydro-1H-imidazo[4,5-c]pyridine], the AC50 was < 500 nM. COc1ccc2c(C(=O)N3CCc4[nH]cnc4[C@H]3c3cc4c(F)cccn4n3)cnn2c1 [Example 1696, (S)-(4-(4-fluoropyrazolo[1,5-a]pyridin-2-yl)-6,7-dihydro-1H-imidazo[4,5-c]pyridin-5(4H)-yl)(6-methoxypyrazolo[1,5-a]pyridin-3-yl)methanone] gave an AC50 of 500 to 1000 nM. With COc1ccc2c(C(=O)N3CCc4[nH]cnc4[C@H]3c3cc4c(Cl)cccn4n3)cnn2c1 [Example 1698, (S)-(4-(4-chloropyrazolo[1,5-a]pyridin-2-yl)-6,7-dihydro-1H-imidazo[4,5-c]pyridin-5(4H)-yl)(6-methoxypyrazolo[1,5-a]pyridin-3-yl)methanone] the AC50 was < 500 nM. COc1ccc2c(C(=O)N3CCc4[nH]cnc4[C@@H]3c3cc4c(Cl)cccn4n3)cnn2c1 [Example 1699, (R)-(4-(4-chloropyrazolo[1,5-a]pyridin-2-yl)-6,7-dihydro-1H-imidazo[4,5-c]pyridin-5(4H)-yl)(6-methoxypyrazolo[1,5-a]pyridin-3-yl)methanone] was tested, and the AC50 was > 5000 nM. For Cn1ccc(-c2nnc(C(=O)N3CCc4[nH]cnc4[C@H]3c3cc4c(OC(F)(F)F)cccn4n3)o2)n1 [Example 1702, (S)-(5-(1-methyl-1H-pyrazol-3-yl)-1,3,4-oxadiazol-2-yl)(4-(4-(trifluoromethoxy)pyrazolo[1,5-a]pyridin-2-yl)-6,7-dihydro-1H-imidazo[4,5-c]pyridin-5(4H)-yl)methanone], the AC50 was < 500 nM. In the case of O=C(c1nnc(-c2ccn(C(F)F)n2)o1)N1CCc2[nH]cnc2[C@H]1c1cc2c(OC(F)(F)F)cccn2n1 [Example 1704, (S)-(5-(1-(difluoromethyl)-1H-pyrazol-3-yl)-1,3,4-oxadiazol-2-yl)(4-(4-(trifluoromethoxy)pyrazolo[1,5-a]pyridin-2-yl)-6,7-dihydro-1H-imidazo[4,5-c]pyridin-5(4H)-yl)methanone], the AC50 is reported as < 500 nM. For O=C(c1nnc(-c2ccn(C(F)(F)F)n2)o1)N1CCc2[nH]cnc2[C@H]1c1cc2c(OC(F)(F)F)cccn2n1 [Example 1706, (S)-(4-(4-(trifluoromethoxy)pyrazolo[1,5-a]pyridin-2-yl)-6,7-dihydro-1H-imidazo[4,5-c]pyridin-5(4H)-yl)(5-(1-(trifluoromethyl)-1H-pyrazol-3-yl)-1,3,4-oxadiazol-2-yl)methanone], the AC50 was < 500 nM. With O=C(c1nnc(-c2ccn(C(F)(F)F)n2)o1)N1CCc2[nH]cnc2[C@@H]1c1cc2c(OC(F)(F)F)cccn2n1 [Example 1707, (R)-(4-(4-(trifluoromethoxy)pyrazolo[1,5-a]pyridin-2-yl)-6,7-dihydro-1H-imidazo[4,5-c]pyridin-5(4H)-yl)(5-(1-(trifluoromethyl)-1H-pyrazol-3-yl)-1,3,4-oxadiazol-2-yl)methanone] the AC50 was > 5000 nM. O=C(c1nnc(-c2ccn(C(F)(F)F)n2)o1)N1CCc2[nH]cnc2[C@H]1c1cc2c(OC(F)F)cccn2n1 [Example 1708, (S)-(4-(4-(difluoromethoxy)pyrazolo[1,5-a]pyridin-2-yl)-6,7-dihydro-1H-imidazo[4,5-c]pyridin-5(4H)-yl)(5-(1-(trifluoromethyl)-1H-pyrazol-3-yl)-1,3,4-oxadiazol-2-yl)methanone] gave an AC50 of 500 to 1000 nM. With O=C(c1nnc(-c2ccn(C(F)(F)F)n2)o1)N1CCc2[nH]cnc2[C@@H]1c1cc2c(OC(F)F)cccn2n1 [Example 1709, (R)-(4-(4-(difluoromethoxy)pyrazolo[1,5-a]pyridin-2-yl)-6,7-dihydro-1H-imidazo[4,5-c]pyridin-5(4H)-yl)(5-(1-(trifluoromethyl)-1H-pyrazol-3-yl)-1,3,4-oxadiazol-2-yl)methanone] the AC50 was > 5000 nM. With Cc1cccn2nc([C@H]3c4nc[nH]c4CCN3c3nnc(C(F)F)o3)cc12 [Example 1710, (R)-2-(difluoromethyl)-5-(4-(4-methylpyrazolo[1,5-a]pyridin-2-yl)-6,7-dihydro-1H-imidazo[4,5-c]pyridin-5(4H)-yl)-1,3,4-oxadiazole] the AC50 was > 5000 nM. Molecule Cc1cccn2nc([C@@H]3c4nc[nH]c4CCN3c3nnc(C(F)F)o3)cc12 [Example 1711, (S)-2-(difluoromethyl)-5-(4-(4-methylpyrazolo[1,5-a]pyridin-2-yl)-6,7-dihydro-1H-imidazo[4,5-c]pyridin-5(4H)-yl)-1,3,4-oxadiazole] has an AC50 of 500 to 1000 nM. For Cc1ccc2c(C(=O)N3CCc4[nH]cnc4[C@@H]3c3cc4c(C(F)F)cccn4n3)cnn2c1 [Example 1713, (R)-(4-(4-(difluoromethyl)pyrazolo[1,5-a]pyridin-2-yl)-6,7-dihydro-1H-imidazo[4,5-c]pyridin-5(4H)-yl)(6-methylpyrazolo[1,5-a]pyridin-3-yl)methanone], the AC50 was > 5000 nM.
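Also: after compound treatment, cells received sepiapterin plus isotope-labelled Phenylalanine for 4 hours, then labelled Tyrosine in the medium was quantified, 10-point 2-fold dilution series run in duplicate.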
